The source of these data is patent publication US12612412B2, “Antiviral heterocyclic compounds” (Enanta Pharmaceuticals, Inc., priority 2021, dated 2026).

Test [1] concerns HMPV clinical isolate TN/1501/A1. Briefly: HMPV antiviral assay Method-B (clinical isolate TN/1501/A1 in LLC-MK2 cells, ATP-Lite readout). The class given is cell-based, Human metapneumovirus (HMPV). The following applies: human metapneumovirus, LLC-MK2, 144 h, hMPV WT1501 (clinical isolate TN/1501/A1), 6 days. The gist of the method: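 LLC-MK2 cells infected in suspension with TN/1501/A1 at MOI 0.014 in serum-free medium with 2 μg/mL TPCK-trypsin (final), incubated 6 days at 37° C. Compounds tested in duplicate, 10-point 3-fold dilutions from 10 μM. Cell health read by ATP-Lite luminescence, normalised to virus-only and cells-only controls; EC50 by four-parameter logistic fit.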

The test system of test [2] is genotype A, "Long" strain RSV. Kind of test: RSV-A assay (CPE protection in Hep-2 cells, ATPlite readout). The class given is cell-based, Human respiratory syncytial virus (HRSV). To be noted: human respiratory syncytial virus, MOI 0.1, CPE protection. The gist of the method:
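Hep-2 cells (8,000/well) infected with RSV Long strain at MOI 0.1 in the presence of 2-fold compound dilutions in duplicate. After 5 days, cell viability measured by ATPlite luminescence, normalized between virus-only and uninfected cell controls; EC50 reported.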

Setting [3] is: RSV-A Long strain, read-out: Human RSV-A (“Long”) EC50.
Setting [4] is: genotype A “Long” strain RSV, read-out: Human RSV-A (“Long”).

The structures appear in SMILES notation. pEC50: −log10 of the molar value. Like-named read-outs stand apart in the source and are kept apart here.

For the compound `COc1cc(C(=O)NC[C@](O)(c2cc3c(c(-c4csc(C(F)(F)F)n4)n2)OC[C@]3(C)C(N)=O)C(F)(F)F)cc2cn(C3CC3)nc12` [Example 951], the figures for the pEC50 in test [1] and in test [2] (setting [3]) were more than 6.30 and more than 6.70, respectively.
Take `COc1cc(C(=O)NC[C@](O)(c2cc3c(c(-c4ccc(F)c(Cl)c4)n2)OC[C@]3(C)C(N)=O)C2(F)CC2)cc2sc(C)nc12` [Example 723]: the pEC50 in test [1] is more than 6.30; in test [2] (setting [4]), more than 6.70.
`COc1cc(C(=O)NC[C@](O)(c2cc3c(c(-c4ccc(C(F)(F)F)c(Cl)c4)n2)OC[C@]3(C)C(N)=O)C(F)(F)F)cc2cn(C3CC3)nc12` [Example 579]: the pEC50 in test [1] is less than 6.30; in test [2] (setting [4]), more than 6.70.
For `COc1cc(C(=O)NC[C@](O)(c2cc3c(c(-c4ccc(F)c(Cl)c4F)n2)OC[C@]3(C)C(N)=O)C2CC2)cc2cn(C(F)F)nc12` [Example 556] the same measures were more than 6.30 and more than 6.70.
Turning to `COc1cc(C(=O)NC[C@](O)(c2cc3c(c(-c4ccc(OC(F)(F)F)cc4)n2)OC[C@]3(C)C(N)=O)C(F)(F)F)cc2cn(C3CC3)nc12` [Example 898], the values for the pEC50 in test [1] and in test [2] (setting [3]) were less than 6.30 and more than 6.70, respectively.
Consider `COc1cc(C(=O)NC[C@](O)(c2cc3c(c(-c4ccccc4Cl)n2)OC[C@]3(C)C(N)=O)C(F)(F)F)cc2cn(C3CC3)nc12` [Example 1248], for which the results for the pEC50 in test [1] and in test [2] (setting [3]) were more than 6.30 and more than 6.70, respectively.
On to `COc1cc(C(=O)NC[C@](O)(c2cc3c(c(-c4ccc(F)cc4Cl)n2)OC[C@]3(C)C(N)=O)C(F)(F)F)cc2cc(C(F)(F)F)cnc12` [Example 516], for which the figures for the pEC50 in test [1] and in test [2] (setting [4]) were less than 6.30 and more than 6.70, respectively.
As for `COc1cc(C(=O)NC[C@](O)(c2cc3c(c(-c4cc(Cl)ccc4F)n2)OC[C@]3(C)C(N)=O)C2CC2)cc2cc(Br)c(C)nc12` [Example 1189], the pEC50 in test [1] is more than 6.30; in test [2] (setting [3]), more than 6.70.
Take `Cc1cnc2c(OC(F)(F)F)cc(C(=O)NC[C@](O)(c3cc4c(c(-c5ccc(F)cc5)n3)OC[C@]4(C)C(N)=O)C3CC3)cc2c1` [Example 502]: the pEC50 is more than 6.30 in test [1] and more than 6.70 in test [2] (setting [4]).
For `COc1ccc(C(=O)NC[C@](O)(c2cc3c(c(-c4ccc(F)cc4)n2)OC[C@]3(C)C(N)=O)C(F)(F)F)n2cc(C)nc12` [Example 694], the pEC50 in test [1] was less than 6.30; in test [2] (setting [4]) it was more than 6.70.
As for `Cc1cnc2c(OC(F)F)cc(C(=O)NC[C@](O)(c3cc4c(c(-c5ccc(F)c(F)c5F)n3)OC[C@]4(C)C(N)=O)C3CC3)cc2c1` [Example 527], the pEC50 in test [1] was more than 6.30; in test [2] (setting [4]), more than 6.70.
Turning to `COc1cc(C(=O)NC[C@](O)(c2cc3c(c(-c4ccc(F)cc4)n2)OC[C@@]3(C(N)=O)C2CC2)C(F)(F)F)cc2cc(C3CC3)nn12` [Example 1065], the pEC50 is more than 6.30 in test [1] and more than 6.70 in test [2] (setting [3]).
As for `COc1cc(C(=O)NC[C@](O)(c2cc3c(c(-c4cc(Cl)ccc4F)n2)OC[C@]3(C)C(N)=O)C2(F)CC2)cc2cn(C3CC3)nc12` [Example 735], the figures for the pEC50 in test [1] and in test [2] (setting [4]) were more than 6.30 and more than 6.70, respectively.
As to `COc1cc(C(=O)NC[C@](O)(c2cc3c(c(-c4cc(Cl)c(F)cc4F)n2)OC[C@]3(C)C(N)=O)C2CC2)cc2cc(Br)cnc12` [Example 664], the values for the pEC50 in test [1] and in test [2] (setting [4]) were more than 6.30 and more than 6.70, respectively.
For `COc1cc(C(=O)NC[C@@](O)(c2cc3c(c(-c4cc5c(cc4Cl)OC(F)(F)O5)n2)OC[C@]3(C)C(N)=O)C(F)(F)F)cc2cn(C3CC3)nc12` [Example 1226], the pEC50 in test [1] was less than 6.30; in test [2] (setting [3]) it was more than 6.70.
As to `COc1cc(C(=O)NC[C@](O)(c2cc3c(c(-c4cc(Cl)ccc4F)n2)OC[C@]3(C)C(N)=O)C2CC2)cc2cn(C(F)F)nc12` [Example 1188], the pEC50 in test [1] was more than 6.30; in test [2] (setting [3]), more than 6.70.
With `Cc1cnc2c(Cl)cc(C(=O)NC[C@](O)(c3cc4c(c(-c5ccc(F)c(F)c5Cl)n3)OC[C@]4(C)C(N)=O)C3CC3)cc2c1` [Example 1187], the pEC50 in test [1] is more than 6.30; in test [2] (setting [3]), more than 6.70.
